From patent US6294555A, “1-[(1-Substituted-4-piperidinyl)methyl]-4-piperidine derivative, process for producing the same, medicinal compositions containing the same and intermediates of these compounds” (Dainippon Pharmaceutical Co., Ltd., priority 1998, dated 2001)
pIC50: −log10 of the molar value.

How the values were obtained:
[1] = target: T1, Serotonin 4 (5-HT4) Receptors (Cavia porcellus, UniProt O70528); experiment: Binding Assay on Serotonin 4 (5-HT4) Receptors ([3H]-GR113808, striatum membrane fractions); design: species or system guinea pig (Std-Hartley); conditions: 50% inhibition of specific binding of 0.1 nM [3H]-GR113808; 37° C., 30 min; test compounds are fumarates except numbers marked ** (62, 72, 74: free bases)
T1 construct: the striatum was dissected; from tissue; host or cells: guinea pig (Std-Hartley) brain striatum, membrane fractions
T1 sequence (O70528 whole entry): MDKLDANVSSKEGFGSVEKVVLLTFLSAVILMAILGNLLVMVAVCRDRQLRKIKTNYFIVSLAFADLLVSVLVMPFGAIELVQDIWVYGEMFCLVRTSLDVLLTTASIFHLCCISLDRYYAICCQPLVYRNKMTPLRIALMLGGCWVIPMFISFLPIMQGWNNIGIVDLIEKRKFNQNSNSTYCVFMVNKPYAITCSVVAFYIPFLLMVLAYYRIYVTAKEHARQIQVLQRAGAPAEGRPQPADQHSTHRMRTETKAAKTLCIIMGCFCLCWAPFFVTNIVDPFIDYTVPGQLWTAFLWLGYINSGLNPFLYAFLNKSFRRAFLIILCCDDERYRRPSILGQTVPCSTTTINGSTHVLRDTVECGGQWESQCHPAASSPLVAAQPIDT
Method: Std-Hartley guinea pigs weighing 300-400 g were decapitated, and the brain thereof was immediately taken out, and the striatum was dissected. To the tissue thus obtained was added 15-times volume of Hepes buffer (50 mM, pH7.4, 4° C.), homogenized in a Teflon homogenizer, and centrifuged at 48,000×g at 4° C. for 15 minutes. The pellet was suspended in the same Hepes buffer in a volume of 1 ml per 30 mg of the wet tissues to give receptor membrane fractions.
The reaction was terminated by rapid vacuum filtration and washing (3×4 ml) with ice-cold 50 mM Tris-HCl buffer (pH 7.7) through Whatman GF/B filter paper using a Brandel cell harvester. Prior to the filtration, the filter to be used was presoaked in a 0.1% solution of polyethylenimine for one hour. The radioactivity on the filter was determined with by ACS-II scintillation cocktail by a liquid scintillation counter.

[2] = test system: Mice of Std-ddY strain (evacuation); experiment: Assay on Evacuation in Mice (fecal pellets, oral); type: in vivo, mouse (Std-ddY, male); design: key: -: Inactive; +: Moderately stimulated (P<0.05); ++: Markedly stimulated (p<0.01); conditions: 1 mg/kg oral; fecal pellets at 30, 60 and 120 minutes; Dunnett's test; fumarates except numbers marked ** (25, 86: free bases)
Method: Male mice of Std-ddY strain weighing 25-30 g were used. Free access to food and water was allowed up to the beginning of the procedure.
The mice (each group: five mice) were placed in a mesh bottom cage for fasting, and they were allowed for acclimation to new environment for about one hour prior to the start of the experiment. A test compound, which was previously suspended in the 0.5% tragacanth solution, was administered orally to the mice at a dose of 1 mg/kg. The fecal pellets were counted and collected at 30, 60 and 120 minutes after the treatment of a test compound, and weighed.
The statistical judgment of efficacy was carried out between the control group and the treated group, and determined by Dunnett's test.

Compound | pIC50 [1] | Effect (evacuation) [2]
CCN(CC)C(=O)N1CCC(CN2CCC(NC(=O)c3cc(Cl)c(N)cc3OC)CC2)CC1 [Example 2] | 7.92 | +
COc1cc(N)c(Cl)cc1C(=O)NC1CCN(CC2CCN(C(=O)N(C(C)C)C(C)C)CC2)CC1 [Example 3] | 7.81 | –
CCN(C)C(=O)N1CCC(CN2CCC(NC(=O)c3cc(Cl)c(N)cc3OC)CC2)CC1 [Example 4, 4-amino-5-chloro-N-[1-[1-(N-ethyl-N-methylcarbamoyl)-4-piperidinylmethyl]-4-piperidinyl]-2-methoxybenzamide] | 7.92 | ++
CCCN(C)C(=O)N1CCC(CN2CCC(NC(=O)c3cc(Cl)c(N)cc3OC)CC2)CC1 [Example 5] | 8.12 | –
COc1cc(N)c(Cl)cc1C(=O)NC1CCN(CC2CCN(C(=O)N(C)c3ccccc3)CC2)CC1 [Example 8, 4-amino-5-chloro-2-methoxy-N-[1-[1-(N-methyl-N-phenylcarbamoyl)-4-piperidinylmethyl]-4-piperidinyl]benzamide] | 8.20 | ++
CCN(CC)C(=S)N1CCC(CN2CCC(NC(=O)c3cc(Cl)c(N)cc3OC)CC2)CC1 [Example 11] | 8.17 | –
COc1cc(N)c(Cl)cc1C(=O)NC1CCN(CC2CCN(C(=O)N3CCOCC3)CC2)CC1 [Example 13] | 7.72 | –
COc1cc(N)c(Cl)cc1C(=O)NC1CCN(CC2CCN(S(=O)(=O)N(C)C)CC2)CC1 [Example 16] | 7.85 | –
CCN(CC)C(=O)N1CCC(CN2CCC(NC(=O)c3cc(Cl)c(N)c4c3OCC4)CC2)CC1 [Example 19, 4-amino-5-chloro-N-[1-(1-diethylcarbamoyl-4-piperidinylmethyl)-4-piperidinyl]-2,3-dihydrobenzo[b]furan-7-carboxamide] | 8.57 | ++
CCOc1cc(N)c(Cl)cc1C(=O)NC1CCN(CC2CCN(C(=O)N(CC)CC)CC2)CC1 [Example 27, 4-amino-5-chloro-N-[1-(1-diethylcarbamoyl-4-piperidinylmethyl)-4-piperidinyl]-2-ethoxybenzamide] | 8.36 | ++
CC(C)Oc1cc(N)c(Cl)cc1C(=O)NC1CCN(CC2CCN(C(=O)N(C)C)CC2)CC1 [Example 30, 4-amino-5-chloro-N-[1-(1-dimethylcarbamoyl-4-piperidinylmethyl)-4-piperidinyl]-2-isopropoxybenzamide] | 8.37 | ++
CCOc1cc(N)c(Cl)cc1C(=O)NC1CCN(CC2CCN(C(=O)N3CCCC3)CC2)CC1 [Example 32] | 8.49 | +
CCOc1cc(N)c(Cl)cc1C(=O)NC1CCN(CC2CCN(C(=S)N(C)C)CC2)CC1 [Example 33, 4-Amino-5-chloro-N-[1-(1-dimethylthiocarbamoyl-4-piperidinylmethyl)-4-piperidinyl]-2-ethoxybenzamide] | 8.64 | –
COc1cc(N)c(Br)cc1C(=O)NC1CCN(CC2CCN(C(=O)N3CCCC3)CC2)CC1 [Example 34, 4-amino-5-bromo-2-methoxy-N-[1-[1-(1-pyrrolidinecarbonyl)-4-piperidinylmethyl]-4-piperidinyl]benzamide] | 8.05 | ++
COc1cc(N)c(Cl)cc1C(=O)NC1CCN(CC2CCN(C(=O)Nc3ccccc3)CC2)CC1 [Example 37, 4-amino-5-chloro-2-methoxy-N-[1-(1-phenylcarbamoyl-4-piperidinylmethyl)-4-piperidinyl]benzamide] | 8.96 | ++
COc1cc(N)c(Cl)cc1C(=O)NC1CCN(CC2CCN(C(=O)Nc3ccc(Cl)cc3)CC2)CC1 [Example 38] | 8.80 | –
COc1ccc(NC(=O)N2CCC(CN3CCC(NC(=O)c4cc(Cl)c(N)cc4OC)CC3)CC2)cc1 [Example 39] | 8.64 | –
COc1cc(N)c(Cl)cc1C(=O)NC1CCN(CC2CCN(C(=O)Nc3ccc(C)cc3)CC2)CC1 [Example 40] | 8.77 | –
CCCNC(=O)N1CCC(CN2CCC(NC(=O)c3cc(Cl)c(N)cc3OC)CC2)CC1 [Example 42] | 8.19 | –
COc1cc(N)c(Cl)cc1C(=O)NC1CCN(CC2CCN(C(=O)NCc3ccccc3)CC2)CC1 [Example 47] | 8.80 | –
COc1cc(N)c(Cl)cc1C(=O)NC1CCN(CC2CCN(C(=O)NC3CCCC3)CC2)CC1 [Example 49] | 8.36 | –
COc1cc(N)c(Cl)cc1C(=O)NC1CCN(CC2CCN(C(=O)NC3CCCCCC3)CC2)CC1 [Example 51] | 8.72 | –
Nc1c(Cl)cc(C(=O)NC2CCN(CC3CCN(C(=O)Nc4ccccc4)CC3)CC2)c2c1CCO2 [Example 52, 4-amino-5-chloro-N-[1-(1-phenylcarbamoyl-4-piperidinylmethyl)-4-piperidinyl]-2,3-dihydrobenzo[b]furan-7-carboxamide] | 9.44 | ++
COc1cc(N)c(Cl)cc1C(=O)NC1CCN(CC2CCN(C(N)=O)CC2)CC1 [Example 53, 4-amino-N-[1-(1-carbamoyl-4-piperidinylmethyl)-4-piperidinyl]-5-chloro-2-methoxybenzamide] | 8.01 | –

Compound | pIC50 [1] | Effect (evacuation) [2]
COc1ccc(C(=O)N2CCC(CN3CCC(NC(=O)c4cc(Cl)c(N)cc4OC)CC3)CC2)cc1 [Example 60] | 8.41 | –
COc1cc(N)c(Cl)cc1C(=O)NC1CCN(CC2CCN(C(=O)c3ccc(C)cc3)CC2)CC1 [Example 61] | 8.34 | –
COc1cc(N)c(Cl)cc1C(=O)NC1CCN(CC2CCN(C(=O)c3cc(Cl)c(N)cc3OC)CC2)CC1 [Example 62] | 8.85 | –
COCC(=O)N1CCC(CN2CCC(NC(=O)c3cc(Cl)c(N)cc3OC)CC2)CC1 [Example 63] | 7.68 | –
COCCC(=O)N1CCC(CN2CCC(NC(=O)c3cc(Cl)c(N)cc3OC)CC2)CC1 [Example 64] | – | +
COC(=O)CCCC(=O)N1CCC(CN2CCC(NC(=O)c3cc(Cl)c(N)cc3OC)CC2)CC1 [Example 69] | 7.74 | –
COc1cc(N)c(Cl)cc1C(=O)NC1CCN(CC2CCN(C(=O)c3ccccc3)CC2)CC1 [Example 72, 4-amino-N-[1-(1-benzoyl-4-piperidinylmethyl)-4-piperidinyl]-5-chloro-2-methoxybenzamide] | 8.17 | –
COc1cc(N)c(Cl)cc1C(=O)NC1CCN(CC2CCN(C(=O)c3ccc(Cl)cc3)CC2)CC1 [Example 73] | 8.38 | –
COc1cc(N)c(Cl)cc1C(=O)NC1CCN(CC2CCN(C(=O)c3cc(OC)c(OC)c(OC)c3)CC2)CC1 [Example 74] | 8.05 | –
COc1cc(N)c(Cl)cc1C(=O)NC1CCN(CC2CCN(C(C)=O)CC2)CC1 [Example 75] | – | ++
COC(=O)N1CCC(CN2CCC(NC(=O)c3cc(Cl)c(N)cc3OC)CC2)CC1 [Example 76] | – | ++
CCOC(=O)N1CCC(CN2CCC(NC(=O)c3cc(Cl)c(N)cc3OC)CC2)CC1 [Example 77] | – | ++
COc1cc(N)c(Cl)cc1C(=O)NC1CCN(CC2CCN(C=O)CC2)CC1 [Example 79, 4-amino-5-chloro-N-[1-(1-formyl-4-piperidinylmethyl) -4-piperidinyl]-2-methoxybenzamide] | – | +
COc1cc(N)c(Cl)cc1C(=O)NC1CCN(CC2CCN(C(C)C(C)=O)CC2)CC1 (stereo not drawn) [Example 84, 4-amino-N-[1-[1-(2-butanon-3-yl)-4-piperidinylmethyl]-4-piperidinyl]-5-chloro-2-methoxybenzamide] | 7.85 | –
COc1cc(N)c(Cl)cc1C(=O)NC1CCN(CC2CCN(CC(C)=O)CC2)CC1 [Example 85] | 7.74 | –
COc1cc(N)c(Cl)cc1C(=O)NC1CCN(CC2CCN(CC(=O)C(C)(C)C)CC2)CC1 [Example 87] | 7.92 | –
COc1cc(N)c(Cl)cc1C(=O)NC1CCN(CC2CCN(CCCC(C)=O)CC2)CC1 [Example 88] | 8.14 | –
CCC(=O)CCN1CCC(CN2CCC(NC(=O)c3cc(Cl)c(N)cc3OC)CC2)CC1 [Example 89] | 8.19 | –
CCOC(=O)CN1CCC(CN2CCC(NC(=O)c3cc(Cl)c(N)cc3OC)CC2)CC1 [Example 90] | – | +
CCOC(=O)CCCN1CCC(CN2CCC(NC(=O)c3cc(Cl)c(N)cc3OC)CC2)CC1 [Example 92] | 8.39 | –
CCCCC(C(=O)OCC)N1CCC(CN2CCC(NC(=O)c3cc(Cl)c(N)cc3OC)CC2)CC1 (stereo not drawn) [Example 98] | 7.90 | –
CCC(=O)CN1CCC(CN2CCC(NC(=O)c3cc(Cl)c(N)c4c3OCC4)CC2)CC1 [Example 99, 4-amino-N-[1-[1-(2-butanon-1-yl)-4-piperidinylmethyl]-4-piperidinyl]-5-chloro-2,3-dihydrobenzo[b]furan-7-carboxamide] | 8.41 | –
CCOC(=O)CCCN1CCC(CN2CCC(NC(=O)c3cc(Cl)c(N)c4c3OCC4)CC2)CC1 [Example 100, 4-amino-5-chloro-N-[1-[1-(3-ethoxycarbonylpropyl)-4-piperidinylmethyl]-4-piperidinyl]-2,3-dihydrobenzo[b]furan-7-carboxamide] | 9.00 | –
